Laboratory results as given in ChEMBL document CHEMBL3124906 (J Nat Prod, 2014).
pIC50: −log10 of the molar value. Active and inactive are the calls of the source. The rule behind the calls is not given here.

Assays:
[1] = Cytotoxicity against MDCK cells after 72 hrs; type: cell-based, Canis lupus familiaris; settings: dog
Influenza A virus [2] = assay: Antiviral activity against Influenza A virus (A/Hong Kong/1/1968(H3N2)) infected in MDCK cells assessed as inhibition of virus-induced cytopathic effect at 50 uM after 48 hrs; type: functional; settings: for inhibition at 50 µM: Influenza A virus, MDCK, 48 h
Influenza A virus [3] = assay: Antiviral activity against Influenza A virus J/8178/09 infected in MDCK cells assessed as inhibition of virus-induced cytopathic effect at 50 uM after 48 hrs; type: functional; settings: for inhibition at 50 µM: Influenza A virus, J/8178/09, MDCK, 48 h
[4] = Inhibition of Clostridium perfringens neuraminidase by chemiluminescence based assay
[5] = Induction of fluorescence quenching at 100 uM relative to 4-methylumbelliferone; type: physicochemical
[6] = Induction of fluorescence at 100 uM relative to 4-methylumbelliferone; type: physicochemical
[7] = Inhibition of Clostridium perfringens neuraminidase by fluorescence based assay

SMILES | CC50 at 72 h [1] | inhibition (INH) (Influenza A virus [2]) | inhibition (INH) (Influenza A virus [3]) | pIC50 [4] | inhibition (Influenza A virus [2]) | Activity [5] | inhibition at 50 µM (Influenza A virus [3]) | Activity [6] | pIC50 [7] | inhibition (Influenza A virus [3]) | inhibition at 50 µM (Influenza A virus [2])
CC(C)=CCc1c(O)ccc(C(=O)/C=C/c2cc(O)c3c(c2)C=CC(C)(C)O3)c1O | 135 µM | 48.1% | 29.7% |  |  |  |  |  |  |  | 
CC1(C)C=Cc2c(ccc3c2OCC(O)C3)O1 (configuration not stated) | 336 µM |  |  | 6.19 | inactive | 15% | 36.1% | 0% | 5.54 |  | 
O=C(/C=C/c1ccc(O)cc1)OC[C@]1(O)CO[C@H](O[C@H]2[C@H](Oc3ccc(/C=C/C(=O)c4ccc(O)cc4O)cc3)O[C@H](CO)[C@@H](O)[C@@H]2O)[C@H]1O |  |  |  |  | inactive |  |  |  |  | inactive | 
O=C1C[C@@H](c2ccc(O[C@@H]3O[C@H](CO)[C@@H](O)[C@H](O)[C@H]3O[C@H]3OC[C@@](O)(COC(=O)c4c[nH]c5ccccc45)[C@@H]3O)cc2)Oc2cc(O)ccc21 |  |  |  |  | inactive |  |  |  |  | inactive | 
COc1ccc(-c2coc3cc(O)ccc3c2=O)cc1 [FORMONONETIN] | 123 µM |  |  | 6.47 |  | -12.4% |  | 15.4% | 4.87 |  | 
CC(C)=CCc1cc([C@@H]2CC(=O)c3ccc(O)c(CC=C(C)C)c3O2)ccc1O [GLABROL] | 25.4 µM |  |  | 6.89 | inactive | 37.4% |  | 1.18% | 5.66 | inactive | 
CC1(C)C=Cc2c(ccc(-c3coc4cc(O)ccc4c3=O)c2O)O1 [GLABRONE] | 90.8 µM |  |  | 7.15 |  | 28.3% |  | 0.68% | 4.93 |  | 24.2%
CC1(C)C=Cc2c(ccc([C@@H]3COc4c(ccc5c4C=CC(C)(C)O5)C3)c2O)O1 [HISPAGLABRIDIN B] | 39.2 µM |  |  | 6.77 |  | 15.1% | 48.4% | 0.05% | 5.37 |  | 31.2%
O=C1C[C@@H](c2ccc(O[C@@H]3O[C@H](CO)[C@@H](O)[C@H](O)[C@H]3O)cc2)Oc2cc(O)ccc21 [LIQUIRITIN] | > 239 µM |  |  |  | inactive |  |  |  |  | inactive | 
O=C1C[C@@H](c2ccc(O)cc2)Oc2cc(O)ccc21 [LIQUIRTIGENIN] | 301 µM |  |  |  | inactive |  |  |  |  | inactive | 
CCOC(=O)C1=C[C@@H](OC(CC)CC)[C@H](NC(C)=O)[C@@H](N)C1 [OSELTAMIVIR] |  |  |  | 3.96 |  | 12.8% |  | 0.05% | 3.90 |  | 
O=C1C[C@@H](c2ccc(O)cc2)Oc2cc(O[C@@H]3O[C@H](CO)[C@@H](O)[C@H](O)[C@H]3O)cc(O)c21 [PRUNIN] | 126 µM |  | 49.6% |  | inactive |  |  |  |  |  | 
